{
  "source": "patent US20170304288A1",
  "about": "“Formulations of Methionine Aminopeptidase Inhibitors for Treating Infectious Diseases” (Texas Southern University, priority 2013, published 2017)",
  "key": {"[1]": {"experiment": "Octanol-water partition co-efficient, shaker method", "type": "physicochemical", "settings": "read-out: experimental M log P", "experimental": "The octanol—water partition co-efficient (log P) of compound 5, which measures its hydrophilicity (“water-loving” property) or hydrophobicity (“water-repelling” property), was evaluated using the shaker method. […] This indicate potential water solubility challenges especially for oral administration."}, "E. faecalis OG1RF [2]": {"tested_on": "E. faecalis OG1RF", "experiment": "Bacterial viability (CFU) in infected nematodes after treatment", "type": "in vivo, Enterococcus faecalis", "settings": "4×10^−11 μg/mL, after three days of treatment", "experimental": "Young Adult nematodes sequentially preinfected with E. faecalis for 5 h. The nematodes were washed three times with sterile […] and collected by centrifugation between each wash and then transferred into tubes. […] The nematodes were washed twice in 25 mM Tetramisole and transferred to 6 well plates containing 20% BHI and the inhibitors to recover for 48 h and 72 h. After recovery time elapsed, nematodes were then transferred into an eppendorf tube containing 200 μl of M9 and ground using motorized pestle for 1 min and tube was briefly vortexed."}, "[3]": {"experiment": "Solubility in various solvents, shaker method", "type": "physicochemical", "settings": "for solubility at 72 h: thermodynamic from solid, read-out: Mean Solubility ± SD", "experimental": "Assessment of the solubility of compound 5 in various solvents is important in developing suitable formulations for preclinical and clinical studies. The solubility of compound 5 in water, ethanol, poly ethylene glycol 400, propylene glycol monocapryrate type I (PGMC), propylene glycol monocapryrate type II (CAPYROL 90), dimethyl sulfoxide (DMSO), dimethyl acetamide (DMA), TWEEN 80, TWEEN 20, paraffin oil, soybean oil, and olive oil were determined by the shaker method. Briefly, excess amount of compound 5 was added to each of the selected solvents in a scintillation vial and placed on a reciprocating shaker to shake at room temperature for 72 h. The samples were centrifuged at 14,000 rpm for 10 min and subsequently filtered through a 0.22 μm filtration unit; the resulting filtrate was analyzed by HPLC-UV to determine the amount of compound 5 dissolved in the solvents. The experiment was conducted in triplicate."}, "E. faecalis OG1RF [4]": {"tested_on": "E. faecalis OG1RF", "experiment": "Assay of E. faecalis inhibition (MIC) in BHI culture", "settings": "Enterococcus faecalis, read-out: Minimum Inhibitory Concentration MIC30 OG1RF"}, "[5]": {"experiment": "Stability in plasma and urine samples for LC-MS/MS analysis", "type": "in vitro ADME, rat", "experimental": "The short-term (bench-top) stability of compound 5 in plasma and urine samples was evaluated by analyzing three sets each of freshly prepared plasma and urine samples containing compound 5 and placed them on the bench-top for 2, 4, and 6 h, respectively or at −80° C. for 14 days. All the samples were compared with freshly prepared samples of the same concentration.\nThe stability of compound 5 in processed samples (on-instrument or auto-sampler stability) was also evaluated by comparing freshly prepared plasma and urine QC samples to similar samples placed on the auto-sampler for 2, 4, and 6 h respectively. One set of the plasma and urine QC samples was extracted with acetonitrile containing IS, and the other set with pure acetonitrile without IS."}, "[6]": {"experiment": "Stability of co-solvent formulations at storage temperatures", "type": "physicochemical", "settings": "stored at −20° C., 4° C. and 25° C.; Day 3, 7, 14 and 30", "experimental": "The stability of the optimal co-solvent formulations was investigated at various storage temperatures. Briefly, aliquots of the optimal co-solvent formulations were stored at different temperatures (−20° C., 4° C. and 25° C.) and analyzed using LC/MS/MS on Day 3, 7, 14 and 30 to determine the amount of compound 5 remaining. The experiment was conducted in triplicates. […] The optimal co-solvent formulations were applied to the pharmacokinetic study of compound 5 in rats (Table 18)."}, "[7]": {"tested_on": "Pseudomonas aeruginosa (PA14)", "experiment": "Screening against P. aeruginosa in LB and SK media"}, "E. faecalis V583": {"tested_on": "E. faecalis V583", "experiment": "Liquid-based C. elegans infection model, survival"}},
  "note": "Where two headings read alike, the source gives them in different places.",
  "data": [
    {"smiles": "Oc1c(Br)cc(Cl)c2cccnc12", "note": "[Compound 5, 7-bromo-5-chloroquinolin-8-ol]", "values": [
      {"measurement": "logP", "setting": "[1]", "result": "3.03 ± 0.04"},
      {"measurement": "drop in CFU", "setting": "E. faecalis OG1RF [2]", "result": 50, "unit": "fold"},
      {"measurement": "Mean Solubility ± SD", "setting": "[3]; Dimethyl acetamide", "result": ">80", "unit": "mg/mL"},
      {"measurement": "solubility at 72 h", "setting": "[3]; dimethyl acetamide, organic solvent or mixture", "result": "> 80", "unit": "mg/mL"},
      {"measurement": "solubility at 72 h", "setting": "[3]; water", "result": 0.07, "unit": "mg/mL"},
      {"measurement": "MIC", "setting": "E. faecalis OG1RF [4]", "result": "2.5 to 5", "unit": "µg/mL"},
      {"measurement": "Processed sample or Auto-sampler stability No IS", "setting": "[5]; Plasma, 2 hr", "result": "97.8 ± 1.11"},
      {"measurement": "Processed sample or Auto-sampler stability With IS", "setting": "[5]; Plasma, 2 hr", "result": "95.9 ± 1.87"},
      {"measurement": "Short-term Stability", "setting": "[5]; Plasma, 2 hr bench-top", "result": "91.6 ± 4.06"},
      {"measurement": "Processed sample or Auto-sampler stability No IS", "setting": "[5]; Plasma, 4 hr", "result": "97.1 ± 5.42"},
      {"measurement": "Processed sample or Auto-sampler stability With IS", "setting": "[5]; Plasma, 4 hr", "result": "94.7 ± 4.20"},
      {"measurement": "Short-term Stability", "setting": "[5]; Plasma, 4 hr bench-top", "result": "95.1 ± 3.24"},
      {"measurement": "Processed sample or Auto-sampler stability No IS", "setting": "[5]; Plasma, 6 hr", "result": "95.5 ± 6.69"},
      {"measurement": "Processed sample or Auto-sampler stability With IS", "setting": "[5]; Plasma, 6 hr", "result": "97.3 ± 5.55"},
      {"measurement": "Short-term Stability", "setting": "[5]; Plasma, 6 hr bench-top", "result": "93.7 ± 1.17"},
      {"measurement": "Short-term Stability", "setting": "[5]; Plasma, 14 days at −80° C.", "result": "91.3 ± 5.45"},
      {"measurement": "Processed sample or Auto-sampler stability No IS", "setting": "[5]; Urine, 2 hr", "result": "92.3 ± 1.32"},
      {"measurement": "Processed sample or Auto-sampler stability With IS", "setting": "[5]; Urine, 2 hr", "result": "102.1 ± 1.35"},
      {"measurement": "Short-term Stability", "setting": "[5]; Urine, 2 hr bench-top", "result": "94.4 ± 1.83"},
      {"measurement": "Processed sample or Auto-sampler stability No IS", "setting": "[5]; Urine, 4 hr", "result": "92.8 ± 2.31"},
      {"measurement": "Processed sample or Auto-sampler stability With IS", "setting": "[5]; Urine, 4 hr", "result": "99.5 ± 1.89"},
      {"measurement": "Short-term Stability", "setting": "[5]; Urine, 4 hr bench-top", "result": "93.2 ± 4.10"},
      {"measurement": "Processed sample or Auto-sampler stability No IS", "setting": "[5]; Urine, 6 hr", "result": "94.2 ± 1.59"},
      {"measurement": "Processed sample or Auto-sampler stability With IS", "setting": "[5]; Urine, 6 hr", "result": "103.2 ± 2.33"},
      {"measurement": "Short-term Stability", "setting": "[5]; Urine, 6 hr bench-top", "result": "95.6 ± 1.44"},
      {"measurement": "Short-term Stability", "setting": "[5]; Urine, 14 days at −80° C.", "result": "101.6 ± 4.29"},
      {"measurement": "stability in the optimal co-solvent formulations", "setting": "[6]", "result": "stable in the co-solvent formulations for up to one month"},
      {"measurement": "MIC", "setting": "[7]; PA14, read-out: MIC30 P. aeruginosa", "result": "< 2.5", "unit": "µg/mL"},
      {"measurement": "inhibition at 2.5 µg/mL", "setting": "[7]; PA14, read-out: inhibition of P. aeruginosa", "result": "~80", "unit": "%"},
      {"measurement": "MPC (Minimum Protective Concentration) V583", "setting": "E. faecalis V583", "result": "4e-12", "unit": "µg/mL"}
    ]}
  ]
}
